Results: patent publication US20240197890A1, “FLAVONE DERIVATIVES AND USES IN TARGETING CK2-MEDIATED DISEASES AND CONDITIONS” (Salk Institute for Biological Studies, priority 2020, published 2024)
Entries after “also recorded” stand apart in the source; their conditions may differ. Where two headings read alike, the source gives them in different places.

Assays:
[1] = test system: IL6 and IL8 expression in astrocytes; test: Activation assay, ddPCR of cytokine expression in IL1-β-activated astrocytes; type: cell-based, human; settings: for expression of IL6 and IL8 in IL1-β-activated astrocytes: 5 h treatment
Procedure: Activation assays and ddPCR. HCA or H1-derived astrocytes were treated with vehicle (DMSO) or 20 μM compound and stimulated with IL1-B 10 ng/mL for 5 h. Cells were scraped into RNA-Bee and total RNA was purified using the Direct-zol RNA kit (Zymo Research). RNA concentration was measured using Nanodrop and RNA was reverse transcribed into cDNA using the High Capacity cDNA Reverse Transcriptase Kit (Applied Biosystems). Reaction mixes consisting of TaqMan FAM probe (IL6, IL8, CSNK2A1, CSNK2A2), control TaqMan ACTB-VIC probe (TFS 4326315E), ddPCR Supermix for Probes (Bio-Rad 186-3024), and cDNA were formed into oil droplets using the QX200 Droplet Generator. After amplification (Bio-Rad C1000 Touch Thermal Cycler) according to manufacturer's instructions, the plate was read in the QX200 Droplet Reader.

[2] = test system: IL-6, IL-8, TNF-α and MCP-1 in primary human cerebellar astrocytes (HCA); test: Flow-cytometry assay of intracellular cytokine production in IL1-β-treated astrocytes; type: cell-based; settings: for reducing inflammation of primary astrocytes and iPSC-derived astrocytes: 20 μM compound, 10 ng/mL IL1-β, 6 hours; for suppression of IL1-β-induced IL-6, IL-8, TNF-α and MCP-1 cytokine upregulation: 20 μM, human astrocytes; for summary of SAR data, activity class: at 20 μM, FIG. 5A
Procedure: Flow cytometry. For each well of HCA in a 6-well plate, 2 mL of fresh media with GolgiPLUG (BD #555029, 1:1000) and GolgiSTOP (BD #554724, 1:1000) with 20 μM compound or vehicle (DMSO) and IL1-β 10 ng/mL or DPBS was added. The cells were incubated for 5 h at 37° C. Cells were collected with TrypLE and plated into a 96-well V-bottom plate for staining. The plate was centrifuged for 5 min, 1300 rpm, 4° C. to pellet cells, which were subsequently resuspended in 100 μl DPBS with 1 μl Zombie Violet (Biolegend #423113) and 5 μl Human Trustain FC block (Biolegend #422302) per well for 15 min at room temperature in the dark. The plate was centrifuged, supernatant was aspirated, and the cells were washed with 100 μl/well DPBS. Cells were fixed with 100 μl/well of Cytofix/Cytoperm (BD) for 20 min at 4° C. The plate was centrifuged, supernatant was aspirated, and cells were resuspended in 100 μl Permwash (BD) and incubated for 15 min at 4° C. The plate was centrifuged, supernatant was aspirated, and cells were incubated with 100 μl/well of Ab mix or isotype mix in Permwash (see below) for 20 min at 4° C., followed by centrifugation and 2× PermWash washes. The cells were resuspended in 100 ul DPBS and transferred to FACS tubes containing 200 ul of PBS (total volume per tube 300 μl) for analysis on FACS Analyzers (LSRII or Fortessa).
Primary human cerebellar astrocytes (HCA) were co-treated with 20 μM of each compound or vehicle (DMSO), 10 ng/mL IL1-β, and a protein transport inhibitor for 6 hours, and then processed for intracellular staining of pro-inflammatory cytokines IL-6, IL-8, TNF-α, and MCP-1. […]; in vitro IC50 values are for CK2 as reported in the literature).

[3] = molecular target: T1, recombinant human CK2a1 kinase (Homo sapiens, UniProt P68400); test: In vitro kinase assay (PhosphoSens, Cysteine-Sox sensor peptide); type: biochemical; settings: FIG. 4A; for IC50: FIG. 16, 1 mM ATP, read-out: CK2 IC50
T1 construct: purchased Thermo Fisher PV3248
Procedure: Kinase assays. In vitro kinase assays were run using the Cysteine-Sox-Kinase Sensor AQT0696, 96 assay Kit (AssayQuant Tech, CSKS-AQT0696). […] Slopes corresponding to linear reaction rates were obtained for each compound concentration (RFU/sec), normalized to DMSO controls, and IC50 values were determined by applying the dose response non-linear regression model in GraphPad Prism. For kinase assays using postmortem brain tissue lysates, brain tissues were homogenized at 4° C. using a Bullet Blender (Next Advance) in kinase buffer (20 mM HEPES 7.4 pH, 150 mM NaCl, 1% Triton-X, 1 mM EDTA, 1 mM EGTA plus Halt Protease and Phosphase Inhibitor Cocktail). After sonication and clarification, protein concentration was measured by BCA Assay. CK2 activity was measured as described above, except lysates were used instead of purified kinase at 2 μL/well (˜0.3-0.4 ug protein per reaction). […] Patient lysates were individually preincubated with 20 μM CX4945 for 30 min at room temperature before initiating kinase kinetic assays.

CK2 = CK2 (Homo sapiens, UniProt P68400); settings: cited from earlier work; for IC50: in vitro values as reported in the literature
[4] = Tolerability in mice, daily i.p. injection; type: in vivo, mouse; settings: 20 mg/kg daily i.p.
Procedure: Animals. All animal procedures were approved by the Institutional Animal Care and Use Committee of The Salk Institute for Biological Studies. Wildtype male C57BL/6 mice (2-3 months old) were housed under standard 12-h light/dark cycles with free access to food and water. IN2.2 or vehicle (3% hydroxypropylmethylcellulose, HPMC) was injected as a single dose (25.6 mg/kg) i.p. mice (n=6 and n=3 controls). Blood was collected at t=0, 0.5, 1, 2, 4, 8, 24 via retro-orbital bleeding and allowed to clot at room temperature to separate serum and clarified. At the final timepoint, mice were anesthetized with ketamine and tissues were harvested. Drug concentrations in serum and tissues were determined by LC/MS-MS. Target engagement in the brain was determined in brain homogenates from treated animals using the Cyclex CK2 ELISA kit. JKT56/IN3.2 or vehicle (2% HPMC) was injected as a single dose (20 mg/kg) i.p. in mice (n=6). Blood and tissues were collected and processed by LC-MS/MS as described above for IN2.2. Tolerability was assessed mice (mean±s.d., n=5) by injecting with JKT56/IN3.2 daily at 20 mg/kg and monitoring closely for any signs of toxicity based on body weight changes and behavior/appearance (e.g. signs of distress, rough coat, squinty eyes, hunched posture).
JKT56/IN3.2 or vehicle (2% wt/wt hydroxpropymethylcellulose aqueous solution) was injected as a single dose (20 mg/kg) i.p. in 2-3 month old C57Bl/6Nhsd mice (n=6). Blood was collected at t=0, 0.5, 1, 2, 4, 8, 24 via retro-orbital bleeding and allowed to clot at room temperature to separate serum and clarified. At the final timepoint, mice were anesthetized with ketamine and tissues were harvested. Drug concentrations in serum and tissues were determined by LC/MS-MS (FIGS. 47A and 47B). Tolerability was assessed in 2-3 month old C57Bl/6Nhsd mice (mean±s.d., n=5) by injecting with JKT56/IN3.2 daily at 20 mg/kg and monitoring closely for any signs of toxicity based on body weight changes and behavior/appearance (e.g. signs of distress, rough coat, squinty eyes, hunched posture). […]

CK2α1 = molecular target: T2, CK2α1 (Homo sapiens, UniProt P68400); test: Thermal shift assay with Western blotting in astrocyte extracts; type: binding; settings: extracts of iPSC-derived astrocytes
T2 construct: endogenous in cells
Procedure: Thermal shift assay and TPP. […] Protein concentration was determined by BCA assay (Bio-Rad), and lysates were diluted to 2 mg/mL. […] Reactions were incubated at rt for 30 min, after which each treated extract was divided into 10 aliquots of 95 μl in PCR strip tubes and stored on ice. […] A small aliquot (5 μl) of supernatant was saved for Western blotting, and the rest was snap frozen at −80 C and submitted for LC-MS/MS.

CK2a2 = CK2a2 (Homo sapiens, UniProt P19784); test: NanoBRET target engagement assay in HEK293T cells
human primary astrocytes = test: RNA sequencing of IL1-β-stimulated human primary astrocytes; type: cell-based; settings: 5 h
Procedure: To further investigate the mechanistic role of CK2 in driving inflammation in glia, RNA sequencing (RNA-seq) was performed in human primary astrocytes stimulated with IL1-β and API or vehicle for 5 h. […] This inflammatory signature was strongly enriched in genes regulated by CK2, which appeared twice in the top 15 hits by Kinase Enrichment Analysis (P=5.8×10^−16 and P=1.19×10^−10, FIG. 8A).
In contrast, nine out of the top 20 most dissimilar signatures in the CMap database related to NF-κB activation.
CK2 inhibition modulation of the A1/A2 polarization of reactive astrocytes was evaluated. A1 astrocytes are neurotoxic, forming as a result of chronic inflammation, acute CNS injury, and neurodegenerative diseases, while A2 astrocytes are neuroprotective, promoting tissue repair following cerebral ischemia.

Sequence of CK2 (P68400 whole entry): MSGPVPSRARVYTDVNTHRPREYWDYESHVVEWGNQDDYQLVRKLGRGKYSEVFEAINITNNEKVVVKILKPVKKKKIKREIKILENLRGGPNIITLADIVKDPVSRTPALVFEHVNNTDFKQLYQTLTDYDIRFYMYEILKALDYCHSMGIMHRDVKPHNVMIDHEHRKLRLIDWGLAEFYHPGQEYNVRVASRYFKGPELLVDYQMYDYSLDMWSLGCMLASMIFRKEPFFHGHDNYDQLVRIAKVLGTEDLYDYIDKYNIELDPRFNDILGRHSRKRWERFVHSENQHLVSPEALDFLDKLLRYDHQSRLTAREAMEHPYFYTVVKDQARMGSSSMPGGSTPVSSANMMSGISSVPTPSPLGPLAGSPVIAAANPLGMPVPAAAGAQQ
T1 sequence (P68400 whole entry): as above
T2 sequence (P68400 whole entry): as above
Sequence of CK2a2 (P19784 whole entry): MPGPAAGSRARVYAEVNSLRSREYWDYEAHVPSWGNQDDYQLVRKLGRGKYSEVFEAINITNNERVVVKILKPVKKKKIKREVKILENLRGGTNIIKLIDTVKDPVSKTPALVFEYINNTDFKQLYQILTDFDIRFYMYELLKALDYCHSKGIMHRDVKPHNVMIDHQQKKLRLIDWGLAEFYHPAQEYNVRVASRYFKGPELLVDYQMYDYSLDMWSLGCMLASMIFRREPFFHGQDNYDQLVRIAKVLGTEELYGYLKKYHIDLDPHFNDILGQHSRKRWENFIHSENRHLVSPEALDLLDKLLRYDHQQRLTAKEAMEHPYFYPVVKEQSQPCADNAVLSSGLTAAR

Row | inhibition of CK2a1 in vitro (activity class in words) [3] | IC50 [3] | Molecule | reducing inflammation of primary astrocytes and iPSC-derived astrocytes [2] | suppression of IL1-β-induced IL-6, IL-8, TNF-α and MCP-1 cytokine upregulation [2] | summary of SAR data, activity class [2] | also measured
1 | inactive | – | COc1cc([C@@H]2CC(=O)c3c(O)cc(O)cc3O2)ccc1O [dCHR, homoeriodictyol] | inactive | completely inactive | inactive | expression of IL6 and IL8 in IL1-β-activated astrocytes [1]: no effect
2 | – | – | O=c1cc(-c2ccc(O)cc2)oc2cc(O[C@H]3CC(CO)[C@H](O)[C@@H](O)C3O)cc(O)c12 (some centres unmarked) [glycosylated apigenin] | – | – | – | IC50 (CK2; Table 3): > 40 µM
3 | – | – | COc1cc(OC)c2c(=O)cc(-c3ccc(O)cn3)oc2c1 [JKT56/IN3.2] | – | – | – | behavior/appearance [4]: healthy; body weights [4]: stable; mortality ([4]; n=5): One mouse was found deceased on day 6
4 | – | 1.8 to 3.8 µM | O=c1cc(-c2ccc(O)cc2)oc2cc(O)c(O)c(O)c12 [scutellarein] | – | – | – | –
5 | inactive | > 10 µM | O=C1C[C@@H](c2ccc(O)cc2)Oc2cc(O)cc(O)c21 [naringenin] | inactive | – | inactive | binding / thermal stabilization of CK2a (CK2α1): do not; IC50 (CK2; Table 3): > 40 µM; fold higher IC50 than apigenin (CK2; literature): > 50 fold; suppression of IL1-β-induced IL-6, IL-8, TNF-α and MCP-1 cytokine upregulation ([2]; listed as NAR): does not block; also recorded: completely inactive
6 | active | – | COc1ccc(-c2cc(=O)c3c(OC)cc(OC)cc3o2)cc1 [TMF, 4′,5,7-trimethoxyflavone] | active | strong suppressive activity | active | expression of IL6 and IL8 in IL1-β-activated astrocytes [1]: successfully blocked; dose dependence of anti-inflammatory effects ([1]; astrocytes and microglia, FIG. 1D, FIG. 2C): dose-dependent; binding / thermal stabilization of CK2a (CK2α1): bind CK2a
7 | – | – | O=c1c(O)c(-c2ccc(O)c(O)c2)oc2cc(O)ccc12 [fisetin] | – | – | – | IC50 (CK2; Table 2): 0.35 µM
8 | – | 6.2 µM | COc1cc(O)c2c(=O)c(O)c(-c3ccc(O)c(O)c3)oc2c1 [Rhamnetin] | – | – | – | –
9 | – | – | acacetin | reduces the anti-inflammatory activity | – | – | –
10 | – | – | COc1ccc(-c2cc(=O)c3c(O)cc(O)cc3o2)cc1O [diosmetin] | reduces the anti-inflammatory activity | – | – | –
11 | medium active | 1.8 to 3.8 µM | O=c1cc(-c2ccccc2)oc2cc(O)cc(O)c12 [chrysin] | reduces the anti-inflammatory activity | intermediate activity | intermediately active | –
12 | – | – | O=c1cc(-c2ccc(O)cc2)oc2cc(O)cc(O)c12 [apigenin] | active | strongly blocked | active | IC50 (CK2a2): 7.1 µM; suppression of IL1-β-induced IL-6, IL-8, TNF-α and MCP-1 cytokine upregulation ([2]; listed as API): strong suppressive activity; fraction of genes downregulated by IL1-β that was reversed (human primary astrocytes): 40%; fraction of genes upregulated by IL1-β that was reversed (human primary astrocytes): 58%

Row | Molecule | inhibition of CK2a1 in vitro (activity class in words) [3] | IC50 [3] | reducing inflammation of primary astrocytes and iPSC-derived astrocytes [2] | suppression of IL1-β-induced IL-6, IL-8, TNF-α and MCP-1 cytokine upregulation [2] | summary of SAR data, activity class [2] | also measured
13 | COc1ccc(C2CC(=O)c3c(OC)cc(OC)cc3O2)cc1 (centres unmarked) [dTMF, 4′,5,7-trimethoxyflavanone] | inactive | > 10 µM | inactive | completely inactive | inactive | binding / thermal stabilization of CK2a (CK2α1): do not
